# Experimental data published in patent US8258178B2, “Agents for preventing attachment of barnacle consisting of organic solvent extracts of red alga Laurencia sp. and compounds isolated therefrom” (Central Research Institute of Electric Power Industry, priority 2007, dated 2012).
# Where two headings read alike, the source gives them in different places.
# What was measured:
# [1] = in vivo; type: in vivo; settings: Amphibalanus amphitrite (barnacle, cypris larvae), in vivo; concentration at which dead individuals after 5 days account for 50% of all individuals; read-out: LC50 (toxicity to larvae)
# Procedure: (§1) Adult samples of Amphibalanus amphitrite collected from Lake Hamanako, Shizuoka-ken in the breeding season (May to November in Hamanakako) were subject to drying stimulus for about 12 hours (drying stimulus refers to taking out barnacles out of the breeding water and let them dry), and then they were put into a water bath, thereby allowing eggs to hatch into nauplius larvae (if the adults are not in a breeding season, they are subject to food satiation breeding for about two weeks at a water temperature of 20° C. to 25° C., and after subjecting to drying stimulus for about 12 hours, they are housed in a water bath to allow eggs to hatch into nauplius larvae). […] At 5th day of breeding, the nauplius larvae metamorphosed into cypris larvae, which were collected using light or the like and refrigerated (4° C.) for two days, and then used for attachment•metamorphosis inhibition tests.
# (§2) Into a 24-well multi plate made of polystyrene (Corning, Inc.) was put an ethanol solution in which a methanol extract of red algae laurencia sp. of the present invention or the compound of the present invention was dissolved, and allowed to dry, followed by charging of 2 mL filtered seawater. Six individual cypris larvae of Amphibalanus amphitrite were put into each well and bred at 25° C. for two to five days, and the number of individuals that metamorphosed from cypris larvae into barnacle immatures while attaching to the plate surface, the number of individuals not attached thereto and still swimming as cypris larvae, and the number of dead individuals were counted under a stereoscopic microscope. The tests were conducted using four wells each for a same concentration of the compound of the present invention, and the tests were repeated three or more times. […] Furthermore, the concentration at which the ratio of the number of attaching•metamorphosing individuals to the number of all the subject individuals after 2 days is one-half in comparison with the case not having the compounds of the present invention, was represented by EC50. Concentrations (μg/ml) were represented by the value obtained by dividing the amount of the methanol extract of red algae laurencia sp. (μg) or the amount of the compound (μg) added per well by 2 mL of filtered seawater added per well.
# [2] = system: cypris larvae of Amphibalanus amphitrite; experiment: whole plant or invertebrate; type: in vivo; settings: for EC50: Amphibalanus amphitrite, 48 h, read-out: EC50 of attachment•metamorphosis of cypris larvae
# Procedure: as §1, §2
# [3] = system: barnacle; settings: reported in Non-Patent Documents 1 and 2; cited from earlier work
# [4] = Non-Patent Document 7; cited from earlier work
# [5] = after 2 days, concentration at which ratio of attaching•metamorphosing individuals is one-half of the case without compound, 25° C., 24-well plate, 2 mL filtered seawater
structure (smiles),measurement,setting,value
CC(C)=CCC[C@@](C)(O)[C@@H](O)CC[C@](C)(O)[C@H]1CC[C@H]2O[C@@H]([C@]3(C)CC[C@@H](Br)C(C)(C)O3)CC[C@]2(C)O1 [Magireol A],LC50 at 5 days,[1],14.4 µg/mL
same,EC50,[2],0.3 µg/mL
CC[C@@H]1[C@@H]2[C@H]3OC(C=C=CBr)C[C@H]3O[C@]2(O)[C@@H](Br)C[C@H]1Br (stereo partly drawn) [Hachijojimallene A],EC50 of attachment•metamorphosis of cypris larvae,[2]; [5],0.15 µg/mL
same,LC50 (toxicity to larvae),[2]; concentration at which dead individuals after 5 days account for 50% of all individuals,9.8 µg/mL
C=C1C[C@H](O)[C@H](Br)C(C)(C)[C@]12CC=C(C)CC2 [deschloroelatol],barnacle attachment inhibitory activity,[3],have a barnacle attachment inhibitory activity
C=C1[C@@H](C)CC[C@@]1(C)c1cc(Br)c(C)cc1O [isolaurinterol],barnacle attachment inhibitory activity,[3],possess a barnacle attachment inhibitory activity
C#C/C=C/C[C@@H](OC(C)=O)[C@H]1C/C=C\C[C@H](Br)[C@@H](CC)O1 [Laurencin],EC50 of attachment•metamorphosis of cypris larvae,[2]; [5],0.23 µg/mL
same,toxicity to larvae,[2]; at 100 μg/mL,no toxicity at all
CC(C)(O)[C@H]1CC[C@](C)([C@@H](O)CC[C@](C)(O)[C@H]2CC[C@H]3O[C@@H]([C@]4(C)CC[C@@H](Br)C(C)(C)O4)CC[C@]3(C)O2)O1 [Thyrsiferol],LC50 at 5 days,[1],2.5 µg/mL
same,EC50,[2],0.11 µg/mL
same,cytotoxicity,[4],known to have cytotoxicity
CC/C(Br)=C\C=C\[C@@H](O)[C@H](Br)[C@@H]1O[C@@H](C=C=CBr)C[C@@H]1O [Omaezallene],LC50 at 5 days,[1],3.4 µg/mL
same,EC50,[2]; [5],0.22 µg/mL
Cc1cc(O)c([C@]2(C)CC[C@@H]3C[C@@]32C)cc1Br [laurinterol],barnacle attachment inhibitory activity,[3],possess a barnacle attachment inhibitory activity
C=C1C[C@H](O)[C@H](Br)C(C)(C)[C@@]12CCC(C)=C(Cl)C2 [elatol],barnacle attachment inhibitory activity,[3],have a barnacle attachment inhibitory activity
